Results taken from patent publication US20160083429A1, “COMPOSITIONS AND METHODS FOR ENDOTOXIN NEUTRALIZATION” (Immunotrex Biologics, Inc., priority 2014, published 2016).

Assays:
THP-1 cell line = assay: Peptides block effect of LPS in THP-1 cell line; format: cell-based, human; conditions: THP-1 stimulated with LPS 1 mg/mL, treated after 24 hours with peptide 0.5 mg/mL
Description: THP-1 is a human monocytic cell line derived from an acute monocytic leukemia patient. It is typically used to test immunocytochemical analysis of protein-protein interaction and immunohistochemistry. THP-1 cell line can provide continuous culture, grown in suspension, for example, RPMI 1640+10% FBS+2 mM L-glutamine. The average doubling time is 35 to 50 hrs. To inhibit bacterial growth, 1 mM sodium pyruvate, penicillin (100 units/mL) or streptomycin (100 ug/mL) can be employed. Cultures are typically maintained at between 2-9×10^5 cells/mL at 37 degrees C., and 5% CO2. The cells are generally non-adhesive.
THP-1 cell line in culture was stimulated with 1 mg/mL LPS.
In contrast, THP-1 stimulated with LPS (1 mg/mL) and then treated after 24 hours with Peptide 1 (KK-12)(SEQ ID NO: 1) (0.5 mg/mL).

[1] = ESI-MS detection of peptide-Lipid-A complex formation; format: binding; conditions: CHL/MeOH/H2O solutions; D-Lipid-A 0.005 mg/mL
Description: In this example, electrospray ionization mass spectrometry experiments were carried out on Lipid-A (D-Lipid-A) and peptides WK-11, KK-12, KK-11 under a variety of solution and mass spectrometry conditions. Binding of D-Lipid-A to WK-11, KK-12, KK-11 peptides was observed by mass spectrometry methods, as quite abundant ion (LipidA-peptide) complexes were detected from CHL/MeOH/H2O solutions.
Materials: Three peptides KFFKKFFKFFKK (SEQ ID NO: 1; KK-12), WKKWWKKWWKK (SEQ ID NO: 2; WK-11), and KKKKFFFKFFK (SEQ ID NO: 3; KK-11) were ordered from a custom commercial synthesis. Diphosphoryl Lip-A (D-Lipid-A) (C94O25N2P2H178) was obtained from Sigma.
Chemicals: chloroform (CHL), methanol (MeOH), Water (H2O), triethylamine (TEA), ammonium acetate.
Instrumentation: Micro-TOF ESI-MS (Bruker Daltonics); Q-Star-XL nano-ESI-MS (AB-SCIEX).
Solubility studies were performed in order to optimize the solubility of both the peptides and diphosphoryl Lipid A. Solution conditions for electrospray ionization mass spectrometry experiments on diphosphoryl Lipid A and peptides were evaluated using (CHL)X(MeOH)Y(H2O)Z, where X=0-70%; Y=0-70%; and Z=0-95%.
In one experiment, Diphosphoryl Lipid A (0.005 mg/mL) and WK-11 (0.005 mg/mL) were dissolved in 70% CHL/30% MeOH/0.5% water and evaluated by ESI-MS. Electrospray ionization mass spectrometry (ESI-MS) of peptide WK-11 and Lipid-A and detection of complex formation is shown in FIG. 6. Single circles show fragments assigned to the peptide. Double circles show lipid A bound to peptide WK-11.
In another experiment, Diphosphoryl Lipid A (0.005 mg/mL) and KK-12 (0.005 mg/mL) were dissolved in 70% CHL/30% MeOH/0.5% water and evaluated by ESI-MS. Single circles show fragments assigned to the peptide. Double circles show lipid A bound to peptide KK-12.
In another experiment, Diphosphoryl Lipid A (0.005 mg/mL) and KK-11 (0.015 mg/mL) were dissolved in 30% CHL/68% MeOH/2% water and evaluated by ESI-MS. Single circles show fragments assigned to the peptide. Double circles show lipid A bound to peptide KK-11.

[2] = ESI-MS competition ranking of Lipid A-binding propensities of peptides; conditions: for relative binding affinity Ka with D-Lipid-A, competition KK-12 vs KK-11 / relative binding affinity Ka with D-Lipid-A, competition WK-11 vs KK-12 / relative binding affinity Ka with D-Lipid-A, competition WK-11 vs KK-11: 0.0032 mg/mL each peptide; for relative binding affinity Ka with D-Lipid-A, competition KK-12 vs KK-11: D-lipid-A 0.005 mg/mL; for relative binding affinity Ka with D-Lipid-A, competition WK-11 vs KK-12: D-lipid-A 0.001-0.0050 mg/mL, FIG. 20A; for relative binding affinity Ka with D-Lipid-A, competition WK-11 vs KK-12 / relative binding affinity Ka with D-Lipid-A, competition WK-11 vs KK-11: R-ratios; for rank order of relative binding affinities (Ka) to D-lipid-A, combined data of Example 4: combined competition data; for relative binding affinity Ka with D-Lipid-A, competition WK-11 vs KK-11: increasing D-lipid-A, FIG. 20B
Source text: ESI-MS based methods were used to rank binding affinities of peptides WK-11, KK-12, and KK-11 to diphosphoryl lipid A in CHL/MeOH/H2O, 45%/55%/0.05%, unless otherwise specified.
Materials and Chemicals were the same as shown in Example 3.
Instrumentation included Micro-TOF ESI-MS (Bruker Daltonics); FT-ICR-MS NanoDrop-2000 UV-Vis Spectrophotometer.
A series of ESI-MS competition experiments were designed to determine relative binding intensities of peptide-lipid A complexes in ESI-MS while varying the concentration of the D-lipid-A.
Then, an equal concentration of both peptides was employed, while increasing the concentration of the D-lipid-A in three experiments, as shown in FIGS. 12-14. Double circles surround lipid-A bound to peptide WK-11 (“1”) or lipid-A bound to KK-12 (“2”).
Resultant signal intensities of peptides and their complexes with D-lipid-A were used to plot R-ratios, determined as in Eq. 1, against D-Lipid-A concentrations.
R═Itotal(peptide:Lipid)/Itotal(peptide) [Eq. 1]
Comparison of the corresponding R-functions allows us to rank the peptides Ka binding constants, assuming that the value of the ratio between signal-response factors of complexes is approximately the same or deviates only weakly from the one for corresponding free peptides.
Then, an equal concentration of both peptides was employed, while increasing the concentration of the D-lipid-A in three experiments, two of which are shown in FIGS. 17-18. Double circles surround lipid-A bound to peptide WK-11 (“1”) or lipid-A bound to KK-11 (“2”).
Resultant signal intensities of peptides and their complexes with D-lipid-A were used to plot R-ratios, determined as in Eq. 1, against D-Lipid-A concentrations, as in Example 4B.

Substance	effect on LPS-stimulated THP-1 cells (cell adherence, outer membrane shape and color) (THP-1 cell line)	binding to Lipid A (complex formation detected by ESI-MS) [1]	relative binding affinity Ka with D-Lipid-A, competition KK-12 vs KK-11 [2]	relative binding affinity Ka with D-Lipid-A, competition WK-11 vs KK-12 [2]	rank order of relative binding affinities (Ka) to D-lipid-A, combined data of Example 4 [2]	relative binding affinity Ka with D-Lipid-A, competition WK-11 vs KK-11 [2]
KFFKKFFKFFKK [KK-12]	appears to reverse the effects of LPS	specifically binds to Lipid A	Ka(KK-11)>Ka (KK-12)	Ka(WK-11)>Ka(KK-12)	Ka(WK-11)≧Ka(KK-11)>Ka(KK-12)	–
KKKKFFFKFFK [KK-11]	–	specifically binds to Lipid A	Ka(KK-11)>Ka (KK-12)	–	Ka(WK-11)≧Ka(KK-11)>Ka(KK-12)	Ka(WK-11)≧Ka(KK-11)
Angiotensin (DRVYIHPFHL; Angiotensin-1; UniProt P01019 25-34, looked up) [control standard peptide with size similar to KDEON peptides, reference compound]	–	no sign of binding propensity to D-Lipid-A	–	–	–	–
WKKWWKKWWKK [WK-11]	–	specifically binds to Lipid A	–	Ka(WK-11)>Ka(KK-12)	Ka(WK-11)≧Ka(KK-11)>Ka(KK-12)	Ka(WK-11)≧Ka(KK-11)
